The text below walks through data of patent publication EP1935887A1, “Heterocyclic substituted carbonyl derivatives and their use as dopamine D3 receptor ligands” (Aventis Pharmaceuticals Inc., priority 2001, dated 2002).

Where two headings read alike, the source gives them in different places.

The target in this assay is T1, Cloned Human Dopamine D3 Receptors (Homo sapiens, UniProt P35462).
T1 construct: expressed in transfected cells; membrane homogenate
Description: [N-Methyl-3H]Spiroperidol binding to cloned human dopamine D3 receptors. The following applies: read-out: d3Ki. Summed up:
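[N-methyl-3H]spiroperidol binding is run in Tris buffer, pH 7.7. Receptor source is membranes of a stably transfected, high-expressing CHO clone carrying the human D3 gene, kept at -80°C in 10% DMSO.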

T1 sequence (P35462 whole entry): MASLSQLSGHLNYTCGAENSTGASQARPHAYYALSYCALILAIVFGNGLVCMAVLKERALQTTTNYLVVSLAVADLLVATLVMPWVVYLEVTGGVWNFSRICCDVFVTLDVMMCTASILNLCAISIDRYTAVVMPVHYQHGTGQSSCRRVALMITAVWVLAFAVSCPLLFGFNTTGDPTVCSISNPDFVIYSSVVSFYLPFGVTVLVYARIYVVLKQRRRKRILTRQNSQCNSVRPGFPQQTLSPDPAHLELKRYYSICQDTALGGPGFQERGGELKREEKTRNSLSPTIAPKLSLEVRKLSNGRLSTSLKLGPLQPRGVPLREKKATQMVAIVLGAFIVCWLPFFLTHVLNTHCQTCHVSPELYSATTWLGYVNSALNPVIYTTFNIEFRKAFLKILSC

On to `CCOC(=O)C1CN(C(=O)C2CC2CN2CCCN(c3csc4cc(C(F)(F)F)ccc34)CC2)CCC1=O` (stereo not shown) [compound 826685], for which, for the setting “Table 2 part the 10th table”, the Ki turned out to be 154 nM.
Same read-out and setting: to `O=C([C@@H]1C[C@H]1CN1CCCN(c2csc3cc(C(F)(F)F)ccc23)CC1)N1CCC(O)CC1` [compound 826686] belongs 26 nM.
On the same count and under the same terms, for `NC(=O)C1CCN(C(=O)[C@@H]2C[C@H]2CN2CCCN(c3csc4cc(C(F)(F)F)ccc34)CC2)CC1` [compound 826687] the value was 132 nM.
Still for that read-out and setting: for `O=C([C@@H]1C[C@H]1CN1CCCN(c2csc3cc(C(F)(F)F)ccc23)CC1)N1CCC(Cc2ccccc2)CC1` [compound 826688] the value was 217 nM; for `N#CC1(c2ccccc2)CCN(C(=O)[C@@H]2C[C@H]2CN2CCCN(c3csc4cc(C(F)(F)F)ccc34)CC2)CC1` [compound 826689], 674 nM; for `O=C([C@@H]1C[C@H]1CN1CCCN(c2csc3cc(C(F)(F)F)ccc23)CC1)N1CCOCC1` [compound 826691], 35 nM.
With `C[C@H]1CC[C@H](NC(=O)CCCN2CCCN(c3csc4cc(F)ccc34)CC2)CC1` [compound 826824], for the setting “Table 2, unit inferred”, the Ki was 34.2 nM.
Same read-out and setting: for `CCOC(=O)[C@H]1CC[C@H](NC(=O)CCCN2CCCN(c3csc4cc(F)ccc34)CC2)CC1` [compound 826825] the value was 74.9 nM; for `CC[C@H]1CC[C@H](NC(=O)CCCN2CCCN(c3csc4cc(F)ccc34)CC2)CC1` [compound 826826], 27.4 nM; for `CC1CCCC(NC(=O)CCCN2CCCN(c3csc4cc(F)ccc34)CC2)C1` (stereo not shown) [compound 826827], 39.5 nM.
On to `CCN(C(=O)CCCN1CCCN(c2csc3cc(F)ccc23)CC1)C1CCCCC1` [compound 826829], for which the Ki (Table 2, unit inferred) was found to be 15 nM.
The same measure, in the same setting: to `O=C(CCCN1CCCN(c2csc3cc(F)ccc23)CC1)N(CCO)C1CCCCC1` [compound 826830] belongs 25.1 nM.
In the case of `CCOC(=O)C1CCN(C(=O)CCCN2CCCN(c3csc4cc(F)ccc34)CC2)CC1` [compound 826831], for the setting “Table 2 part the 10th table”, the Ki worked out at 2.55 nM.
`O=C(CCCN1CCCN(c2csc3cc(F)ccc23)CC1)N1CCC(O)CC1` [compound 826832]: the Ki (Table 2 part the 10th table) turned out to be 16.1 nM.
On the same count and under the same terms, to `CC1CCCCN1C(=O)CCCN1CCCN(c2csc3cc(F)ccc23)CC1` (stereo not shown) [compound 826833] belongs 0.872 nM; to `CC1CCN(C(=O)CCCN2CCCN(c3csc4cc(F)ccc34)CC2)CC1` [compound 826834], 8.01 nM.
Still for that read-out and setting: to `CC1CCCN(C(=O)CCCN2CCCN(c3csc4cc(F)ccc34)CC2)C1` (stereo not shown) [compound 826835] belongs 2.12 nM.
Same read-out and setting: to `O=C(CCCN1CCCN(c2csc3cc(F)ccc23)CC1)N1CCC(N2CCCC2)CC1` [compound 826836] belongs 2.23 nM; to `CC1(C)CCCN(C(=O)CCCN2CCCN(c3csc4cc(F)ccc34)CC2)C1` [compound 826837], 8.8 nM; to `CC1CC(C)CN(C(=O)CCCN2CCCN(c3csc4cc(F)ccc34)CC2)C1` (stereo not shown) [compound 826838], 14.6 nM.
On to `O=C(CCCN1CCCN(c2csc3cc(F)ccc23)CC1)N1CCCC1` [compound 826839], for which the Ki (Table 2 part the 10th table) came out at 9.37 nM.
As to `O=C(CCCN1CCCN(c2csc3cc(F)ccc23)CC1)NC1CCCC1` [compound 826840], the Ki (Table 2, unit inferred) stood at 11 nM.
As to `CC1CCCN1C(=O)CCCN1CCCN(c2csc3cc(F)ccc23)CC1` (stereo not shown) [compound 826842], the Ki (Table 2 part the 10th table) turned out to be 3.66 nM.
Still for that read-out and setting: to `CN(C)C1CCN(C(=O)CCCN2CCCN(c3csc4cc(F)ccc34)CC2)C1` (stereo not shown) [compound 826843] belongs 126 nM; to `CN(C)C1CCN(C(=O)CCCN2CCN(c3csc4cc(F)ccc34)CC2)C1` (stereo not shown) [compound 826863], 26.6 nM.
On to `C[C@H]1CC[C@H](NC(=O)[C@@H]2C[C@H]2CN2CCCN(c3csc4cc(F)ccc34)CC2)CC1` [compound 826864], for which the Ki was found to be 2.16 nM.
The same measure, in the same setting: to `CCOC(=O)[C@H]1CC[C@H](NC(=O)[C@@H]2C[C@H]2CN2CCCN(c3csc4cc(F)ccc34)CC2)CC1` [compound 826865] belongs 3.68 nM; to `CC[C@H]1CC[C@H](NC(=O)[C@@H]2C[C@H]2CN2CCCN(c3csc4cc(F)ccc34)CC2)CC1` [compound 826866], 1.24 nM; to `CC1CCCC(NC(=O)[C@@H]2C[C@H]2CN2CCCN(c3csc4cc(F)ccc34)CC2)C1` (stereo partly shown) [compound 826867], 1.89 nM.
Same read-out and setting: to `CN(C(=O)[C@@H]1C[C@H]1CN1CCCN(c2csc3cc(F)ccc23)CC1)C1CCCCC1` [compound 826868] belongs 3.49 nM; to `CCN(C(=O)[C@@H]1C[C@H]1CN1CCCN(c2csc3cc(F)ccc23)CC1)C1CCCCC1` [compound 826869], 6.75 nM; to `O=C([C@@H]1C[C@H]1CN1CCCN(c2csc3cc(F)ccc23)CC1)N(CCO)C1CCCCC1` [compound 826870], 7.4 nM.
In the case of `CCOC(=O)C1CCN(C(=O)[C@@H]2C[C@H]2CN2CCCN(c3csc4cc(F)ccc34)CC2)CC1` [compound 826871], under “Table 2 part the 10th table”, the Ki stood at 10.7 nM.
On the same count and under the same terms, to `CC1CCCCN1C(=O)[C@@H]1C[C@H]1CN1CCCN(c2csc3cc(F)ccc23)CC1` (stereo partly shown) [compound 826873] belongs 1.31 nM; to `CC1CCN(C(=O)[C@@H]2C[C@H]2CN2CCCN(c3csc4cc(F)ccc34)CC2)CC1` [compound 826874], 1.72 nM; to `CC1CCCN(C(=O)[C@@H]2C[C@H]2CN2CCCN(c3csc4cc(F)ccc34)CC2)C1` (stereo partly shown) [compound 826875], 2.79 nM.
The same measure, in the same setting: for `O=C([C@@H]1C[C@H]1CN1CCCN(c2csc3cc(F)ccc23)CC1)N1CCC(N2CCCC2)CC1` [compound 826876] the value was 2.72 nM.
Take `CC1(C)CCCN(C(=O)[C@@H]2C[C@H]2CN2CCCN(c3csc4cc(F)ccc34)CC2)C1` [compound 826877]: the Ki (Table 2 part the 10th table) is 4.72 nM.
As for `CC1CC(C)CN(C(=O)[C@@H]2C[C@H]2CN2CCCN(c3csc4cc(F)ccc34)CC2)C1` (stereo partly shown) [compound 826878], the Ki (Table 2 part the 10th table) stood at 7.95 nM.
Same read-out and setting: to `O=C([C@@H]1C[C@H]1CN1CCCN(c2csc3cc(F)ccc23)CC1)N1CCCC1` [compound 826879] belongs 1.59 nM.
For the compound `O=C(NC1CCCC1)[C@@H]1C[C@H]1CN1CCCN(c2csc3cc(F)ccc23)CC1` [compound 826880], the Ki came out at 2.86 nM.
Turning to `O=C(NC1CCCCC1)[C@@H]1C[C@H]1CN1CCCN(c2csc3cc(F)ccc23)CC1` [compound 826881], the Ki is 2.38 nM.
As for `CC1CCCN1C(=O)[C@@H]1C[C@H]1CN1CCCN(c2csc3cc(F)ccc23)CC1` (stereo partly shown) [compound 826882], the Ki (Table 2 part the 10th table) is 2.93 nM.
Same read-out and setting: to `CN(C)C1CCN(C(=O)[C@@H]2C[C@H]2CN2CCCN(c3csc4cc(F)ccc34)CC2)C1` (stereo partly shown) [compound 826883] belongs 13.4 nM.
Turning to `CC1CCCC(NC(=O)[C@@H]2C[C@H]2CN2CCN(c3csc4cc(C(F)(F)F)ccc34)CC2)C1` (stereo partly shown) [compound 826884], for the setting “Table 2, unit inferred”, the Ki turned out to be 15.2 nM.
The same measure, in the same setting: to `CN(C(=O)[C@@H]1C[C@H]1CN1CCN(c2csc3cc(C(F)(F)F)ccc23)CC1)C1CCCCC1` [compound 826885] belongs 20.3 nM; to `O=C([C@@H]1C[C@H]1CN1CCN(c2csc3cc(C(F)(F)F)ccc23)CC1)N(c1ccccc1)C1CCCCC1` [compound 826886], 136 nM.
Regarding `O=C(NNC1CCCCC1)[C@@H]1C[C@H]1CN1CCN(c2csc3cc(C(F)(F)F)ccc23)CC1` [compound 826887], the Ki turned out to be 83.8 nM.
Same read-out and setting: to `CC1(C)C2CCC1(C)C(NC(=O)[C@@H]1C[C@H]1CN1CCN(c3csc4cc(C(F)(F)F)ccc34)CC1)C2` (stereo partly shown) [compound 826890] belongs 38 nM.
